The values that follow come from doi:10.1101/2020.06.23.167346v1 (biorxiv, 2020).

The structures appear in SMILES notation.

For the assay, the target named is T1, TcAK (T. cruzi arginine kinase) (Trypanosoma cruzi, UniProt O96507).
T1 sequence (O96507 1-357): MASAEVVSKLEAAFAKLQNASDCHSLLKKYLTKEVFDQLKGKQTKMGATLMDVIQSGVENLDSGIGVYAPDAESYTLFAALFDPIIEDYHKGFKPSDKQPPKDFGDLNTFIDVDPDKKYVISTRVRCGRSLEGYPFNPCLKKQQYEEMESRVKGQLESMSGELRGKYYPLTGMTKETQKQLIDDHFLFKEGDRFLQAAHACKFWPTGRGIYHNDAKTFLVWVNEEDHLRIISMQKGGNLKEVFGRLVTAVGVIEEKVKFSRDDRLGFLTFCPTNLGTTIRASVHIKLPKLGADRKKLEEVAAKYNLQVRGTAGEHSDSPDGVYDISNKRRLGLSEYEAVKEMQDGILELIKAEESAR
The assay is described as follows: coupled pyruvate kinase / lactate dehydrogenase assay, NADH absorbance at […] nm. The format is biochemical.

With `COc1cc(CNC(=O)CCCC/C=C/C(C)C)ccc1O` [capsaicin, (E)-N-(4-hydroxy-3-methoxybenzyl)-8-methyl-6-nonenamide], the IC50 is about 800 µM.
